The IC50 is the midpoint of a concentration-inhibition curve.

Our source for the IC50 values is US20140107100A1, “Benzoxazepines as Inhibitors of PI3K/mTOR and Methods of Their Use and Manufacture” (EXELIXIS, INC., priority 2010, published 2014).

This experiment has as its target mTOR/GbL/Raptor (mTORC1) (Homo sapiens, UniProt P42345). The experiment is described as follows: mTOR/GbL/Raptor (mTORC1) ELISA assay, phosphorylation of 4E-BP1. Format: biochemical. The note with it: 0.2 nM mTORC1, 40 uM ATP, 50 nM NHis-tagged 4E-BP1, 120 minutes; read-out: IC50 in this assay (mTORC1 ELISA). The gist of the method:
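Phospho-4E-BP1 was quantified by luminescent ELISA (anti-phospho-4E-BP1 IgG, HRP-tagged secondary) after capture of the His-tagged substrate on Ni-chelate plates.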
(ELISA stands for enzyme-linked immunosorbent assay.)
Turning to `Cc1cc(-c2cnc3sc(N)nc3c2)cc2c1OCCN(c1nc(N)ncc1C(F)(F)F)C2` [Compound 12, 6-{4-[2-amino-5-(trifluoromethyl)pyrimidin-4-yl]-9-methyl-2,3,4,5-tetrahydro-1,4-benzoxazepin-7-yl}[1,3]thiazolo[5,4-b]pyridin-2-amine], the IC50 is at most 100 nM.

`Cc1cc(-c2cnc3sc(N)nc3c2)cc2c1OCCN(c1nc(C(C)O)nc(C)c1C(C)C)C2` (centres unmarked) [Compound 98, 1-{4-[7-(2-amino[1,3]thiazolo[5,4-b]pyridin-6-yl)-9-methyl-2,3-dihydro-1,4-benzoxazepin-4(5H)-yl]-6-methyl-5-(1-methylethyl)pyrimidin-2-yl}ethanol]: the half-inhibitory concentration (IC50) is at most 100 nM.

Regarding `CCNCc1nc(C)c(C(C)C)c(N2CCOc3c(C)cc(-c4cnc5sc(N)nc5c4)cc3C2)n1` [Compound 158, 6-(4-{2-[(ethylamino)methyl]-6-methyl-5-(1-methylethyl)pyrimidin-4-yl}-9-methyl-2,3,4,5-tetrahydro-1,4-benzoxazepin-7-yl)[1,3]thiazolo[5,4-b]pyridin-2-amine], the IC50 is at most 100 nM.

As for `C=Cc1c(C)ncnc1N1CCOc2c(C)cc(-c3cnc4sc(N)nc4c3)cc2C1` [Compound 115, 6-[4-(5-ethenyl-6-methylpyrimidin-4-yl)-9-methyl-2,3,4,5-tetrahydro-1,4-benzoxazepin-7-yl][1,3]thiazolo[5,4-b]pyridin-2-amine], the IC50 is at most 100 nM.

Regarding `Cc1cc(-c2ccc(-c3ncc[nH]3)cc2)cc2c1OCCN(c1nc(N)nc(C)c1C(C)C)C2` [Compound 42, 4-{7-[4-(1H-imidazol-2-yl)phenyl]-9-methyl-2,3-dihydro-1,4-benzoxazepin-4(5H)-yl}-6-methyl-5-(1-methylethyl)pyrimidin-2-amine], the IC50 is at most 100 nM.

With `Cc1cc(-c2cnc(Cl)c(NS(C)(=O)=O)c2)cc2c1OCCN(c1nc(N)nc(C)c1C(C)C)C2` [Compound 6, N-(5-{4-[2-amino-6-methyl-5-(1-methylethyl)pyrimidin-4-yl]-9-methyl-2,3,4,5-tetrahydro-1,4-benzoxazepin-7-yl}-2-chloropyridin-3-yl)methanesulfonamide], the IC50 was at most 100 nM.

Take `Cc1cc(-c2cnc3sc(N)nc3c2)cc2c1OCCN(c1nc(N)nc(C)c1CC1CC1)C2` [Compound 46, 6-{4-[2-amino-5-(cyclopropylmethyl)-6-methylpyrimidin-4-yl]-9-methyl-2,3,4,5-tetrahydro-1,4-benzoxazepin-7-yl}[1,3]thiazolo[5,4-b]pyridin-2-amine]: the IC50 is at most 100 nM.

As for `Cc1cc(-c2cnc3sc(N)nc3c2)cc2c1OCCN(c1nc(C(F)(F)F)nc(C)c1C(C)C)C2` [Compound 128, 6-{9-methyl-4-[6-methyl-5-(1-methylethyl)-2-(trifluoromethyl)pyrimidin-4-yl]-2,3,4,5-tetrahydro-1,4-benzoxazepin-7-yl}[1,3]thiazolo[5,4-b]pyridin-2-amine], the IC50 is at most 100 nM.

In the case of `Cc1cc(-c2cnc3sc(N)nc3c2)cc2c1OCCN(c1nc(CF)nc(C)c1C(C)C)C2` [Compound 120, 6-{4-[2-(fluoromethyl)-6-methyl-5-(1-methylethyl)pyrimidin-4-yl]-9-methyl-2,3,4,5-tetrahydro-1,4-benzoxazepin-7-yl}[1,3]thiazolo[5,4-b]pyridin-2-amine], the IC50 is at most 100 nM.

As for `Cc1cc(-c2cnc3sc(N)nc3c2)cc2c1OCCN(c1nc(CN(C)C(C)(C)C)nc(C)c1C(C)C)C2` [Compound 100, 6-{4-[2-{[(1,1-dimethylethyl)(methyl)amino]methyl}-6-methyl-5-(1-methylethyl)pyrimidin-4-yl]-9-methyl-2,3,4,5-tetrahydro-1,4-benzoxazepin-7-yl}[1,3]thiazolo[5,4-b]pyridin-2-amine], the IC50 lay in the range of 100 to 500 nM.

Consider `Cc1cc(-c2nnc(N)s2)cc2c1OCCN(c1nc(N)nc(C)c1C(C)C)C2` [Compound 137, 4-[7-(5-amino-1,3,4-thiadiazol-2-yl)-9-methyl-2,3-dihydro-1,4-benzoxazepin-4(5H)-yl]-6-methyl-5-(1-methylethyl)pyrimidin-2-amine], for which the IC50 was at most 100 nM.

In the case of `Cc1cc(-c2cnc3sc(N)nc3c2)cc2c1OCCN(c1nc(N)nc3c1CC(C)(C)CC3)C2` [Compound 10, 4-[7-(2-amino[1,3]thiazolo[5,4-b]pyridin-6-yl)-9-methyl-2,3-dihydro-1,4-benzoxazepin-4(5H)-yl]-6,6-dimethyl-5,6,7,8-tetrahydroquinazolin-2-amine], the IC50 is at most 100 nM.

For `C=Cc1c(C)nc(N)nc1N1CCOc2c(C)cc(-c3nnc(N)s3)cc2C1` [Compound 181, 4-[7-(5-amino-1,3,4-thiadiazol-2-yl)-9-methyl-2,3-dihydro-1,4-benzoxazepin-4(5H)-yl]-5-ethenyl-6-methylpyrimidin-2-amine], the half-inhibitory concentration (IC50) is at most 100 nM.

For the molecule `Cc1cc(-c2cnc3sc(N)nc3c2)cc2c1OCCN(c1nc([C@@H]3C[C@@H](F)CN3)nc(C)c1C(C)C)C2` [Compound 151, 6-(4-{2-[(2S,4R)-4-fluoropyrrolidin-2-yl]-6-methyl-5-(1-methylethyl)pyrimidin-4-yl}-9-methyl-2,3,4,5-tetrahydro-1,4-benzoazepin-7-yl)[1,3]thiazolo[5,4-b]pyridin-2-amine], the IC50 was at most 100 nM.

As for `CC(=O)NCc1nc(C)c(C(C)C)c(N2CCOc3c(C)cc(-c4cnc5sc(N)nc5c4)cc3C2)n1` [Compound 119, N-({4-[7-(2-amino[1,3]thiazolo[5,4-b]pyridin-6-yl)-9-methyl-2,3-dihydro-1,4-benzoxazepin-4(5H)-yl]-6-methyl-5-(1-methylethyl)pyrimidin-2-yl}methyl)acetamide], the IC50 is at most 100 nM.

Regarding `C=C(C)c1c(C)ncnc1N1CCOc2c(C)cc(-c3cnc4sc(N)nc4c3)cc2C1` [Compound 124, 6-{9-methyl-4-[6-methyl-5-(1-methylethenyl)pyrimidin-4-yl]-2,3,4,5-tetrahydro-1,4-benzoxazepin-7-yl}[1,3]thiazolo[5,4-b]pyridin-2-amine], the IC50 is at most 100 nM.

As for `COCCc1c(C)nc(CN2CCCC2)nc1N1CCOc2c(C)cc(-c3cnc4sc(N)nc4c3)cc2C1` [Compound 127, 6-(9-methyl-4-{6-methyl-5-[2-(methyloxy)ethyl]-2-(pyrrolidin-1-ylmethyl)pyrimidin-4-yl}-2,3,4,5-tetrahydro-1,4-benzoxazepin-7-yl)[1,3]thiazolo[5,4-b]pyridin-2-amine], the IC50 was at most 100 nM.

As for `Cc1cc(-c2cnc3sc(N)nc3c2)cc2c1OCCN(c1nccc(N)n1)C2` [Compound 25, 6-[4-(4-aminopyrimidin-2-yl)-9-methyl-2,3,4,5-tetrahydro-1,4-benzoxazepin-7-yl][1,3]thiazolo[5,4-b]pyridin-2-amine], the IC50 was 100 to 500 nM.

For `COc1cc(-c2cnc3sc(N)nc3c2)cc2c1OCCN(c1nc(N)nc(C)c1C(C)C)C2` [Compound 140, 6-{4-[2-amino-6-methyl-5-(1-methylethyl)pyrimidin-4-yl]-9-(methyloxy)-2,3,4,5-tetrahydro-1,4-benzoxazepin-7-yl}[1,3]thiazolo[5,4-b]pyridin-2-amine], the IC50 is 100 to 500 nM.

`Cc1cc(-c2nnc(N)s2)cc2c1OCCN(c1ncnc(C)c1C(C)C)C2` [Compound 173, 5-{9-methyl-4-[6-methyl-5-(1-methylethyl)pyrimidin-4-yl]-2,3,4,5-tetrahydro-1,4-benzoxazepin-7-yl}-1,3,4-thiadiazol-2-amine]: the IC50 was at most 100 nM.
